# Results: paper PMC8748916, “Microbial enzymes induce colitis by reactivating triclosan in the mouse gastrointestinal tract” (Nature Communications, 2022)
# “And” between values parts separate entries of the source, which are not always exact repeats. Identical values can stand only once. Like-named read-outs stand apart in the source and are kept apart here.
# Key:
# R. gnavus 3 GUS = R. gnavus 3 GUS (Mediterraneibacter gnavus, UniProt Z9UC37PQH0); experiment: In vitro IC50 assay (TCS-G to TCS conversion, HPLC); assay type: biochemical
# Caco2 cells = experiment: Cell proliferation assay (MTT); assay type: cell-based, human
# Description: (§1) Mouse (MC38) or human (Caco2 and HCT-116) intestinal cells were grown in DMEM medium fortified with 10% FBS (EMD Millipore Corporation). The cells were seeded in 96-well plates, then treated with GUSi or vehicle (0.2% v/v DMSO) for 24 h. Cell viability was determined using an MTT assay.
# (§2) Fig. S14. GUSi treatment has little effect on the proliferation of mouse or human intestinal cells in vitro.
# (§3) Mouse (MC38) or human (Caco2 and HCT-116) intestinal cells were treated with GUSi or vehicle (0.2% v/v
# (§4) DMSO) for 24 h, then cell viability was analyzed using a MTT assay. The data are mean ± SEM, n = 5-6 per
# HCT-116 cells = experiment: Cell proliferation assay (MTT); assay type: cell-based, human
# Description: as §1, §2, §3, §4
# Loop 1 GUS enzymes = experiment: In vitro IC50 assay, purified Loop 1 GUS enzymes (group statement); assay type: biochemical, gut microbial; details: Fp2-L1 GUS and several other Loop 1 GUS enzymes; conversion of TCS-G to TCS
# Description: Reaction mixtures containing 10 µL GUS (10 nM final), 10 µL TCS-G (200 µM final), 5 µL inhibitor (various concentrations), and 25 µL buffer (50 mM HEPES, 50 mM NaCl, various pH) or (50 mM sodium acetate, 50 mM NaCl, various pH) were incubated for 10 min and quenched with 50 µL 25% trichloroacetic acid. Samples were centrifuged 10 min at 16,000 × g, and the supernatant was analyzed using the method described for the catalytic efficiency assay. Inhibition was calculated by the equation below:1 %inhibition=100×(1−(AUCinh−AUCmax)/(AUCmin−AUCmax)) where AUCmin is the signal of the uninhibited reaction, AUCmax is the signal of the 100% inhibited reaction, and AUCinh is the signal of the reaction at a given concentration of inhibitor. Percent inhibition values were plotted against the log of inhibitor concentration, and GraphPad Prism 8.0 was used to determine IC50 values.
# mouse fecal bacteria = experiment: Conversion of TCS-G to TCS by anaerobically cultured mouse fecal bacteria in vitro; assay type: in vitro ADME; details: from TCS-G, replicates
# [1] = system: Fp2-L1 GUS mutant proteins; experiment: Catalytic efficiency assay, wild-type and mutant Fp2-L1 GUS; assay type: biochemical, F. prausnitzii; details: Fig. 3h, replicates 1-3
# [2] = system: gut microbial β-glucuronidase (GUS) enzymes; experiment: In vitro UDH (coupled) assay of TCS-G cleavage by a panel of 32 purified GUS enzymes; assay type: biochemical
# [3] = system: gut microbial β-glucuronidase (GUS) enzymes; experiment: Catalytic efficiency assay (HPLC) of TCS-G to TCS conversion by purified GUS enzymes; assay type: biochemical
# [4] = GUSi 1.23457 uM, Fig. 4c, triplicate
# [5] = GUSi 3.7037 uM, Fig. 4c, triplicate
# [6] = GUSi 11.1111 uM, Fig. 4c, triplicate
# [7] = GUSi 33.3333 uM, Fig. 4c, triplicate
# [8] = GUSi 100 uM, Fig. 4c, triplicate
# [9] = 24-h treatment, concentration up to 10 µM
# Sequence of R. gnavus 3 GUS (Z9UC37PQH0 1-754): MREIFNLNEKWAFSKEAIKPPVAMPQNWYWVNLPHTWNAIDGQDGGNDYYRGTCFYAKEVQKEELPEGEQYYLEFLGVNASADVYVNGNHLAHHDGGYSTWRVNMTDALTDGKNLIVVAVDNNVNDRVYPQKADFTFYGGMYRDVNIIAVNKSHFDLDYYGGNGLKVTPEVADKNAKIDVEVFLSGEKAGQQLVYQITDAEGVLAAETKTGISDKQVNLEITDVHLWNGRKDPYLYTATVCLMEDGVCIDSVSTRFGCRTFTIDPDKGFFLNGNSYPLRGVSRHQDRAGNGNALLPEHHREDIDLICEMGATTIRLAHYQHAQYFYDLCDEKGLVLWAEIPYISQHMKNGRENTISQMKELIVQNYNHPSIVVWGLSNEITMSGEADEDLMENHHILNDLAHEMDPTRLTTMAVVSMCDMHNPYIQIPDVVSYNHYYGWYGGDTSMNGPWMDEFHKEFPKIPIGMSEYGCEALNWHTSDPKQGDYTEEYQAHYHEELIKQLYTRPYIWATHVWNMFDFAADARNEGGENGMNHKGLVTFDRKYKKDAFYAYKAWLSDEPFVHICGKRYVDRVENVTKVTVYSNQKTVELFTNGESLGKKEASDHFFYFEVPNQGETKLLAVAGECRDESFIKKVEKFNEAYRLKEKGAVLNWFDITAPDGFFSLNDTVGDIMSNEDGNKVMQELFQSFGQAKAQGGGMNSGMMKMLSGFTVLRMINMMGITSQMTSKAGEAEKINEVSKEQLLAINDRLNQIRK
smiles,measurement,setting,value
"C1CCc2c(c(N3CCOCC3)nc3sc4c(N5CCNCC5)nnnc4c23)C1 [GUSi, UNC10201652]",R. gnavus 3 GUS % inhibition,"R. gnavus 3 GUS; GUSi 0.0457247 uM, Fig. 4c, triplicate",-1.753% and -3.75% and 4.591%
same,R. gnavus 3 GUS % inhibition,"R. gnavus 3 GUS; GUSi 0.137174 uM, Fig. 4c, triplicate",0.1348% and -1.9775% and 2.5447%
same,R. gnavus 3 GUS % inhibition,R. gnavus 3 GUS; [4],15.6836% and 27.3384%
same,inhibition at 1.23457 µM,R. gnavus 3 GUS; [4],17.8%
same,R. gnavus 3 GUS % inhibition,R. gnavus 3 GUS; [5],45.7722% and 58.3391%
same,inhibition at 3.7037 µM,R. gnavus 3 GUS; [5],46.7%
same,R. gnavus 3 GUS % inhibition,R. gnavus 3 GUS; [6],62.2571% and 74.9484%
same,inhibition at 11.1111 µM,R. gnavus 3 GUS; [6],64.9%
same,R. gnavus 3 GUS % inhibition,R. gnavus 3 GUS; [7],76.969% and 90.9388%
same,inhibition at 33.3333 µM,R. gnavus 3 GUS; [7],79.3%
same,R. gnavus 3 GUS % inhibition,R. gnavus 3 GUS; [8],87.2656% and 101.29%
same,inhibition at 100 µM,R. gnavus 3 GUS; [8],89.5%
same,IC50,"R. gnavus 3 GUS; conversion of TCS-G (200 µM) to TCS, FMN-binding GUS",3.7 ± 0.5 µM
same,effect on cell growth (MTT),Caco2 cells; [9],little effect
same,Cell proliferation (Fig. S14),"Caco2 cells; Caco2, concentration 1, replicates",98.3792 and 85.2575 and 104.44 and 99.0453 and 92.8508 and 100.244
same,Cell proliferation (Fig. S14),"Caco2 cells; Caco2, concentration 2, replicates",86.1234 and 96.6474 and 97.7798 and 94.9156 and 100.844
same,Cell proliferation (Fig. S14),"Caco2 cells; Caco2, concentration 5, replicates",95.1821 and 92.3845 and 92.5844 and 91.9849 and 82.46 and 86.0568
same,Cell proliferation (Fig. S14),"Caco2 cells; Caco2, concentration 10, replicates",85.1243 and 87.6554 and 72.6021 and 79.7957 and 82.3268 and 62.0782
same,effect on cell growth (MTT),HCT-116 cells; [9],little effect
same,Cell proliferation (Fig. S14),"HCT-116 cells; HCT 116, concentration 1, replicates",91.3142 and 95.487 and 92.4485 and 104.886 and 100.024
same,Cell proliferation (Fig. S14),"HCT-116 cells; HCT 116, concentration 2, replicates",98.4038 and 88.5189 and 93.2993 and 86.1692 and 98.1202 and 99.3761
same,Cell proliferation (Fig. S14),"HCT-116 cells; HCT 116, concentration 5, replicates",113.11 and 102.536 and 95.2844 and 92.408 and 101.807 and 114.082
same,Cell proliferation (Fig. S14),"HCT-116 cells; HCT 116, concentration 10, replicates",87.263 and 108.329 and 83.941 and 79.8088 and 79.1606 and 114.487
same,IC50,Loop 1 GUS enzymes,0.64 to 4.9 µM
"Oc1cc(Cl)ccc1Oc1ccc(Cl)cc1Cl [TCS, Triclosan]",TCS formed,mouse fecal bacteria,17.00 pmol and 16.49 pmol and 18.41 pmol
"O=C(O)C1OC(Oc2cc(Cl)ccc2Oc2ccc(Cl)cc2Cl)C(O)C(O)C1O (stereo not shown) [TCS-G, triclosan-glucuronide]",Catalytic efficiency,[1]; Enzyme: Fp 2-L1 M362A,344000 M⁻¹ s⁻¹ and 207500 M⁻¹ s⁻¹ and 364600 M⁻¹ s⁻¹
same,Catalytic efficiency,[1]; Enzyme: Fp 2-L1 M454A,1202500 M⁻¹ s⁻¹ and 1255200 M⁻¹ s⁻¹ and 1243800 M⁻¹ s⁻¹
same,Catalytic efficiency,[1]; Enzyme: Fp 2-L1 M455A,1203800 M⁻¹ s⁻¹ and 1137600 M⁻¹ s⁻¹ and 1168500 M⁻¹ s⁻¹
same,Catalytic efficiency,[1]; Enzyme: Fp 2-L1 Y479A,0 M⁻¹ s⁻¹
same,Rate,[2],0.1092 µM/s and 0.1031 µM/s and 0.1177 µM/s
same,Rate,"[2]; GUS: Akkermansia muciniphila, Fig. 3a, replicates 1-3",0.0108 µM/s and 0.0181 µM/s and 0.0194 µM/s
same,Rate,"[2]; GUS: Akkermansia sp. CAG:344, Fig. 3a, replicates 1-3",0.0157 µM/s and 0.0151 µM/s and 0.0237 µM/s
same,Rate,"[2]; GUS: Bacteroides MSP (BMSP), Fig. 3a, replicates 1-3",0.0000 µM/s and 0.0073 µM/s and 0.0072 µM/s
same,Rate,"[2]; GUS: Bacteroides coprocola CAG: 126, Fig. 3a, replicates 1-3",0.0000 uM/s (2×) and 0.0056 uM/s
same,Rate,"[2]; GUS: Bacteroides dorei, Fig. 3a, replicates 1-3",0.0000 µM/s
same,Rate,"[2]; GUS: Bacteroides fragillis (1, mini loop), Fig. 3a, replicates 1-3",0.0000 uM/s (2×) and 0.0043 uM/s
same,Rate,"[2]; GUS: Bacteroides fragillis (2, No Loop), Fig. 3a, replicates 1-3",0.0228 µM/s and 0.0242 µM/s and 0.0201 µM/s
same,Rate,"[2]; GUS: Bacteroides ovatus 1 (Double mini loop), Fig. 3a, replicates 1-3",0.0000 µM/s and 0.0060 µM/s and 0.0033 µM/s
same,Rate,"[2]; GUS: Bacteroides ovatus 2 (loop 2), Fig. 3a, replicates 1-3",0.0287 µM/s and 0.0311 µM/s and 0.0066 µM/s
same,Rate,"[2]; GUS: Bacteroides uniformis 1, Fig. 3a, replicates 1-3",0.0000 µM/s
same,Rate,"[2]; GUS: Bacteroides uniformis 2, Fig. 3a, replicates 1-3",0.0217 µM/s and 0.0464 µM/s and 0.0098 µM/s
same,Rate,"[2]; GUS: Bacteroides uniformis 3, Fig. 3a, replicates 1-3",0.0000 µM/s
same,Rate,"[2]; GUS: Clostridiales sp., Fig. 3a, replicates 1-3",0.2137 µM/s and 0.2298 µM/s and 0.2970 µM/s
same,Rate,"[2]; GUS: Escherichia coli, Fig. 3a, replicates 1-3",0.0775 µM/s and 0.0865 µM/s and 0.0858 µM/s
same,Rate,"[2]; GUS: Eubacterium eligens, Fig. 3a, replicates 1-3",0.1302 µM/s and 0.1403 µM/s and 0.1746 µM/s
same,Rate,"[2]; GUS: Eubacterium sp. CAG: 76, Fig. 3a, replicates 1-3",0.2371 µM/s and 0.2156 µM/s and 0.2776 µM/s
same,Rate,"[2]; GUS: Faecalibacterium prausnitzii 2-L1, Fig. 3a, replicates 1-3",0.4231 µM/s and 0.3684 µM/s and 0.3821 µM/s
same,Rate,"[2]; GUS: Faecalibacterium prausnitzii L2-6, Fig. 3a, replicates 1-3",0.2237 µM/s and 0.2529 µM/s and 0.1639 µM/s
same,Rate,"[2]; GUS: Faecalibacterium prausnitzii, Fig. 3a, replicates 1-3",0.1749 µM/s and 0.1228 µM/s and 0.2576 µM/s
same,Rate,"[2]; GUS: Fusicatenibacter saccharivorans, Fig. 3a, replicates 1-3",0.0089 µM/s and 0.0000 µM/s and 0.0052 µM/s
same,Rate,"[2]; GUS: H11G11, Fig. 3a, replicates 1-3",0.0684 µM/s and 0.0777 µM/s and 0.0864 µM/s
same,Rate,"[2]; GUS: Lactobacillus rhamnosus, Fig. 3a, replicates 1-3",0.0323 µM/s and 0.1224 µM/s and 0.1254 µM/s
same,Rate,"[2]; GUS: Parabacteroides merdea, Fig. 3a, replicates 1-3",0.0043 µM/s and 0.0011 µM/s and 0.0000 µM/s
same,Rate,"[2]; GUS: Roseburia hominis 2, Fig. 3a, replicates 1-3",0.0519 µM/s and 0.0527 µM/s and 0.0448 µM/s
same,Rate,"[2]; GUS: Roseburia hominis 3, Fig. 3a, replicates 1-3",0.4975 µM/s and 0.4668 µM/s and 0.4395 µM/s
same,Rate,"[2]; GUS: Roseburia hominis, Fig. 3a, replicates 1-3",0.0330 µM/s and 0.0266 µM/s and 0.0438 µM/s
same,Rate,"[2]; GUS: Roseburia intestinalis, Fig. 3a, replicates 1-3",0.0269 µM/s and 0.0251 µM/s and 0.0293 µM/s
same,Rate,"[2]; GUS: Roseburia inulinvorans, Fig. 3a, replicates 1-3",0.1707 µM/s and 0.1889 µM/s and 0.1974 µM/s
same,Rate,"[2]; GUS: Ruminoccus gnavus 1, Fig. 3a, replicates 1-3",0.0272 µM/s and 0.0287 µM/s and 0.0319 µM/s
same,Rate,"[2]; GUS: Ruminoccus gnavus 3, Fig. 3a, replicates 1-3",0.1417 µM/s and 0.1517 µM/s and 0.1712 µM/s
same,Rate,"[2]; GUS: Streptococcus agalactiae, Fig. 3a, replicates 1-3",0.0757 µM/s and 0.0745 µM/s and 0.0702 µM/s
same,Catalytic efficiency,[3],221350 M⁻¹ s⁻¹ and 261200 M⁻¹ s⁻¹ and 185500 M⁻¹ s⁻¹
same,Catalytic efficiency,"[3]; Enzyme: B. uniformis 2, Fig. 3b, replicates 1-3",26480 M⁻¹ s⁻¹ and 25620 M⁻¹ s⁻¹ and 34030 M⁻¹ s⁻¹
same,Catalytic efficiency,"[3]; Enzyme: Clostridiales sp., Fig. 3b, replicates 1-3",421200 M⁻¹ s⁻¹ and 564000 M⁻¹ s⁻¹ and 643571 M⁻¹ s⁻¹
same,Catalytic efficiency,"[3]; Enzyme: E. coli, Fig. 3b, replicates 1-3",25610 M⁻¹ s⁻¹ and 27630 M⁻¹ s⁻¹ and 30620 M⁻¹ s⁻¹
same,Catalytic efficiency,"[3]; Enzyme: E. eligens, Fig. 3b, replicates 1-3",789000 M⁻¹ s⁻¹ and 987900 M⁻¹ s⁻¹ and 767700 M⁻¹ s⁻¹
same,Catalytic efficiency,"[3]; Enzyme: Eubacterium sp. CAG: 76, Fig. 3b, replicates 1-3",294800 M⁻¹ s⁻¹ and 499700 M⁻¹ s⁻¹ and 451000 M⁻¹ s⁻¹
same,Catalytic efficiency,"[3]; Enzyme: F. prausnitzii 2-L1, Fig. 3b, replicates 1-3",876200 M⁻¹ s⁻¹ and 975000 M⁻¹ s⁻¹ and 757000 M⁻¹ s⁻¹
same,Catalytic efficiency,"[3]; Enzyme: F. prausnitzii, Fig. 3b, replicates 1-3",373850 M⁻¹ s⁻¹ and 362000 M⁻¹ s⁻¹ and 260800 M⁻¹ s⁻¹
same,Catalytic efficiency,"[3]; Enzyme: R. gnavus 3, Fig. 3b, replicates 1-3",816300 M⁻¹ s⁻¹ and 891300 M⁻¹ s⁻¹ and 748300 M⁻¹ s⁻¹
same,Catalytic efficiency,"[3]; Enzyme: R. hominis 2, Fig. 3b, replicates 1-3",168600 M⁻¹ s⁻¹ and 249500 M⁻¹ s⁻¹ and 277800 M⁻¹ s⁻¹
same,Catalytic efficiency,"[3]; Enzyme: R. hominis 3, Fig. 3b, replicates 1-3",801500 M⁻¹ s⁻¹ and 763200 M⁻¹ s⁻¹ and 1075600 M⁻¹ s⁻¹
same,Catalytic efficiency,"[3]; Enzyme: R. inulinvorans, Fig. 3b, replicates 1-3",450800 M⁻¹ s⁻¹ and 617200 M⁻¹ s⁻¹ and 689000 M⁻¹ s⁻¹
